Data reported in patent US20250325563A1, “METHODS FOR TREATING METABOLIC SYNDROME” (priority 2023, published 2025).

Experiments:
[1] = Body weight of mice on daily i.p. administration for 6 days (Example 1); type: in vivo, C57BL/6J mice; conditions: for Mean body weight: N=10
Experimental: Two months old male C57BL/6J mice were housed (4-5 mice per cage) with food and water available ad libidum at a temperature control of 24-26° C. and a 12 h light/dark cycle. 3-4 days before the start of the study, the mice were randomized into 3 experimental groups (N=10 per group) using online randomization tool (Graph Pad, USA). Body weights of each animal were measured once a day during the entire study, their health conditions were assessed at the same time. Elocalcitol (100 μg/kg), vitamin D3 (cholecalciferol,100 μg/kg), or vehicle control were administrated intraperitoneally once a day for 6 days.

[2] = test system: HFD-fed mice; assay: Visceral and subcutaneous fat volumes by MRI (Example 3); type: in vivo, C57BL/6J mice; conditions: 15 μg/kg i.p. twice a week for 16 weeks, n=5
Experimental: (§1) Mice were group-housed (4-5 mice per cage) on a proper temperature control of 24-26° C. with a 12 h light/dark cycle with food and water available ad libidum.
Abdominal area of animals was scanned for assessing visceral and subcutaneous fat loading by using magnetic resonance imaging system (MRI, Bruker BioSpin Group, Bruker Corporations, Germany) before experiment and then once a month during the experiment. The study procedure was conducted as follows: mice (n=5 per group) were anesthetized using isoflurane (1.5-2.5% in 1.5 l/min medical oxygen) and placed on a heated animal bed throughout the MRI procedure. Scans were performed using a 9.4T Bruker BioSpec 94/21 USR system connected to a 1H circular polarized transceiver coil and running Para Vision 6.0.1® software (Bruker BioSpin Group, Bruker Corporation, Germany). Respiration was monitored using a respiration pillow (SA Instruments Inc., Stony Brook, USA) and respiration rate was maintained at between 35-70 breaths per minute. Two orientation pilot scans were performed in order to establish the position of the animal and identify anatomical landmarks relevant for planning the subsequent scan. The final Tl-weighted Bruker: RARE sequence was performed using the following parameters: repetition time (TR) 1164 ms, echo time (TE) 6 ms, flip angle 90 degrees, number of averages 2, imaging matrix 320×320×40, spatial resolution 0.125×0.125×0.5 mm. Volumes were segmented manually by an observer blinded to the experiment using ITK-SNAP (V3.8.0). A 40× zoom was used to measure visceral and subcutaneous fat volume, and renal onset was the starting point for the fat volume analysis.

[3] = test system: HFD-fed mice; type: in vivo, C57BL/6J mice; conditions: 15 μg/kg i.p. twice a week for 16 weeks; for Epididymal fat, absolute organ weight / Epididymal fat, normalized organ weight (organ weight/body weight) / Liver, absolute organ weight / Liver, normalized organ weight (organ weight/body weight): mean ± SEM, n=10
Experimental: as §1

[4] = test system: HFD-fed mice; assay: Blood metabolic markers in serum (Example 5); type: in vivo, C57BL/6J mice; conditions: for HDL in serum / LDL in serum / Total cholesterol in serum / Triglycerides in serum: 15 μg/kg i.p. twice a week, study week 16
Experimental: as §1
The mice were deeply anesthetized with a terminal dosage of phenobarbital (200-300 mg/kg)24 h after the last study treatment administration and the blood samples were collected from all groups of mice via cardiac puncture using a standardized protocol. Collected blood was allowed to coagulate before centrifugation at 2000×g for 20 min after which the serum was stored at −80° C. until the analysis.

[5] = test system: HFD-fed mice; assay: Prevention of total body weight gain in high-fat diet mice (Example 2); type: in vivo, C57BL/6J mice
Experimental: Mice were group-housed (4-5 mice per cage) on a proper temperature control of 24-26° C. with a 12 h light/dark cycle with food and water available ad libidum. […] Body weight was measured once a week and the amount of food and water consumed by the animals was measured once a month.

[6] = test system: HFD-fed mice; assay: Glucose tolerance test (GTT); type: in vivo, C57BL/6J mice; conditions: glucose 2 g/kg i.p.; study week 16; 15 μg/kg i.p. twice a week
Experimental: as §1
For GTT, mice were fasted overnight for 10-12 h and blood glucose was measured from the tail blood using Accu-Chek Performa system glucose meter (Roche, Germany) and the baseline glucose values (0 min) were recorded. The animals were then injected intraperitoneally with glucose (2 g/kg) and after glucose injection the blood glucose was measured from tail blood according to this schedule: 15, 30, 60, 90, and 120 min.

[7] = test system: NF-κB; conditions: Penna et al., 2009; cited from earlier work
[8] = prolonged use; cited from earlier work
[9] = test system: HFD-fed mice; assay: Insulin tolerance test (ITT); type: in vivo, C57BL/6J mice; conditions: insulin 0,5 U/kg i.p.; study week 16; 15 μg/kg i.p. twice a week
Experimental: as §1
Insulin tolerance test (ITT) was performed at the end of the study (study week 16). For ITT, mice were fasted for 6 h and blood glucose was measured from the tail blood using Accu-Chek Performa system glucose meter (Roche, Germany) and the baseline glucose values (0 min) were recorded. The animals were then injected intraperitoneally with insulin (0,5 U/kg; diluted from 100 U/ml (Novorapid, Novo Nordisk A/S) with saline 0.9%) and after […] the blood glucose was measured from tail blood according to this schedule: 15, 30, 60, 90, and 120 min.

[10] = 100 μg/kg i.p. once a day for 6 days
[11] = admin. day 0 (administration start), 100 μg/kg i.p. once a day
[12] = admin. day 1, 100 μg/kg i.p. once a day
[13] = admin. day 2, 100 μg/kg i.p. once a day
[14] = admin. day 3, 100 μg/kg i.p. once a day
[15] = admin. day 4, 100 μg/kg i.p. once a day
[16] = admin. day 5, 100 μg/kg i.p. once a day
[17] = admin. day 6, 100 μg/kg i.p. once a day
[18] = admin. day −1, before administration start, 100 μg/kg group
[19] = admin. day −2, before administration start, 100 μg/kg group
[20] = admin. day −3, before administration start, 100 μg/kg group
[21] = admin. day −4, before administration start, 100 μg/kg group
[22] = day 7, after administration stopped on day 6
[23] = day 7, after administration stopped on day 6, 100 μg/kg i.p.
[24] = day 8, after administration stopped on day 6
[25] = day 8, after administration stopped on day 6, 100 μg/kg i.p.
[26] = 15 μg/kg i.p. twice a week for 16 weeks

C=C1CC[C@H](O)C/C1=C/C=C1\CCC[C@]2(C)[C@@H]([C@H](C)CCCC(C)C)CC[C@@H]12 [Vitamin D3, cholecalciferol, reference compound]
Weight loss observed [1, 10]: No weight loss was observed
Mean body weight [1, 11]: 23.80 g
Weight change % [1, 12]: −0.84%
Mean body weight [1, 12]: 23.60 g
Weight change % [1, 13]: +0.84%
Mean body weight [1, 13]: 24.00 g
Weight change % [1, 14]: 0%
Mean body weight [1, 14]: 23.80 g
Weight change % [1, 15]: +0.84%
Mean body weight [1, 15]: 24.00 g
Weight change % [1, 16]: +1.68%
Mean body weight [1, 16]: 24.20 g
Weight change % [1, 17]: +2.52%
Mean body weight [1, 17]: 24.40 g
Mean body weight [1, 18]: 23.70 g
Mean body weight [1, 19]: 23.50 g
Mean body weight [1, 20]: 23.50 g
Mean body weight [1, 21]: 23.40 g
Weight change % [1, 22]: +2.94%
Mean body weight [1, 23]: 24.50 g
Weight change % [1, 24]: +3.78%
Mean body weight [1, 25]: 24.70 g

C=C1/C(=C\C=C2/CCC[C@]3(C)[C@@H]([C@H](C)CCCC(C)(C)O)CC[C@@H]23)C[C@@H](O)C[C@@H]1O [1,25 (OH)2D3, 1,25-dihydroxycholecalciferol, reference compound]
Subcutaneous fat level (MRI) compared to the HFD group [2]: no statistically significant effect
Visceral fat level (MRI) compared to the HFD group [2]: no statistically significant effect
Epididymal fat, absolute organ weight [3]: 1874 mg
Epididymal fat, normalized organ weight (organ weight/body weight) [3]: 49.67 mg/g
Liver, absolute organ weight [3]: 1374 mg
Liver, normalized organ weight (organ weight/body weight) [3]: 36.03 mg/g
Effect on triglyceride levels [4, 26]: lowered the triglyceride levels similar to the ones in the LFD group
HDL in serum [4]: 3.57 mmol/L
LDL in serum [4]: 0.82 mmol/L
Total cholesterol in serum [4]: 4.44 mmol/L
Triglycerides in serum [4]: 0.68 mmol/L

C=C1/C(=C\C=C2/CCC[C@]3(C)C([C@@H](C)C/C=C/C(O)(CC)CC)=CC[C@@H]23)C[C@@H](O)C[C@@H]1F [elocalcitol]
Subcutaneous fat level (MRI) compared to the HFD group [2]: significant decrease
Visceral and subcutaneous fat relative to the LFD mice [2]: reversed the visceral and subcutaneous fat of the HFD mice to the levels observed in the LFD mice
Visceral fat level (MRI) compared to the HFD group [2]: significant decrease
Study week at which inhibition of the HFD-induced weight gain reaches statistical significance ([5]; 15 μg/kg i.p. twice a week): 7 study week
Lower relative weight gain compared to the vehicle treated HFD mice ([5]; 15 μg/kg i.p. twice a week for 16 weeks, study week 16): 20%
Weights of epididymal fat deposits at the study end, group comparison [3]: significantly lower than those in the HFD and HFD+vitD groups
Epididymal fat, absolute organ weight [3]: 1312 mg
Epididymal fat, normalized organ weight (organ weight/body weight) [3]: 36.29 mg/g
Liver, absolute organ weight [3]: 1412 mg
Liver, normalized organ weight (organ weight/body weight) [3]: 39.45 mg/g
Glucose tolerance of the HFD-fed mice (glucose AUC analysis) [6]: statistically significant improvement
NF-κB inhibition [7]: inhibits NF-κB by blocking the nuclear translocation of the p65 subunit
Effect on cholesterol (the combined HDL and LDL) [4, 26]: statistically significant cholesterol (the combined HDL and LDL) lowering effect
Effect on triglyceride levels [4, 26]: lowered the triglyceride levels similar to the ones in the LFD group
HDL in serum [4]: 2.99 mmol/L
LDL in serum [4]: 0.73 mmol/L
Total cholesterol in serum [4]: 3.88 mmol/L
Triglycerides in serum [4]: 0.87 mmol/L
Oral dose above which hypercalcemia may ensue [8]: higher than 300 μg per day
Increased insulin resistance observed in the HFD (insulin tolerance test) [9]: reverses the increased insulin resistance observed in the HFD in a statistically significant manner
Average body weight after administration was stopped on Day 6 [1, 10]: returned to normal within two days
Mean body weight [1, 11]: 21.50 g
Weight change % [1, 12]: +1.4%
Mean body weight [1, 12]: 21.80 g
Weight change % [1, 13]: −1.4%
Mean body weight [1, 13]: 21.20 g
Weight change % [1, 14]: −5.58%
Mean body weight [1, 14]: 20.30 g
Weight change % [1, 15]: −10.7%
Mean body weight [1, 15]: 19.20 g
Weight change % [1, 16]: −14.42%
Mean body weight [1, 16]: 18.40 g
Weight change % [1, 17]: −18.6%
Mean body weight [1, 17]: 17.50 g
Mean body weight [1, 18]: 21.60 g
Mean body weight [1, 19]: 21.70 g
Mean body weight [1, 20]: 21.60 g
Mean body weight [1, 21]: 21.40 g
Drop of average body weight ([1]; by treatment Day 4, 100 μg/kg i.p. once a day): 10.7%
Average decrease in body weight ([1]; by treatment Day 6, 100 μg/kg i.p. once a day): 18.6%
Weight change % [1, 22]: −16.75%
Mean body weight [1, 23]: 17.90 g
Weight change % [1, 24]: −1.07%
Mean body weight [1, 25]: 19.20 g
